Patent US12018021B2 (UCB Biopharma SRL, priority 2018, dated 2024)

Target: IgE-Tb / sFcεRIα-Y131A-AF488 (Homo sapiens, UniProt P01854, N146Q/N252Q)
Assay: IgE-Tb / sFcεRIα-Y131A-AF488 FRET assay (protocol for examples 234 to 501)
Format: binding
Conditions: examples 234 to 501: compound with IgE-Tb 30 minutes before sFcεRIα-Y131A-AF488, incubated 18 hours at room temperature; read-out: Y131A FRET IC50 range
Procedure, shortened: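 Read-out is the 520/490 nm emission ratio (337 nm excitation) after 18 h at room temperature, background subtracted, fitted four-parameter for IC50. Final reagents: 5 nM IgE-Tb, preincubated 30 min with compound (top typically 10 μM, 2% DMSO, 3-fold 10-point), plus 25 nM sFcεRIα-Y131A-AF488.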

Chain of IgE-Tb / sFcεRIα-Y131A-AF488 (P01854 whole entry N146Q/N252Q): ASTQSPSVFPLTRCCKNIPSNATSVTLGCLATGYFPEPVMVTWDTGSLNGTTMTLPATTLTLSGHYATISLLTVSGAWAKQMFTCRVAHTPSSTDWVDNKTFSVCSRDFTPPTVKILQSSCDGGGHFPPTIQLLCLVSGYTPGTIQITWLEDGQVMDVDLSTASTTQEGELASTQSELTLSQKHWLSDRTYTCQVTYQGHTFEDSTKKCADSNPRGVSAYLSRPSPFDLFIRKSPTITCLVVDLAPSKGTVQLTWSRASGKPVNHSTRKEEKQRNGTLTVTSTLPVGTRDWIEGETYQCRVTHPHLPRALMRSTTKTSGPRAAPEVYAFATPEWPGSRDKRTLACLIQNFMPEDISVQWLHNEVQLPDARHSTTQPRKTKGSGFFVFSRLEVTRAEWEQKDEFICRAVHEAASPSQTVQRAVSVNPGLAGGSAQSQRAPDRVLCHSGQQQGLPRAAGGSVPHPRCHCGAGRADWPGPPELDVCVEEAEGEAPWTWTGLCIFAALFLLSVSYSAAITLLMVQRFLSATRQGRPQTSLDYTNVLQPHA

Structure (SMILES) | IC50
Cn1nc(OC(F)F)cc1Nc1nncn1[C@H]1CCc2sc(NC(=O)[C@H]3C[C@@H]3F)c(C(=O)NC[C@H]3C[C@@H](F)C3)c2C1 (single isomer, unassigned) [Example 377] | < 1000 nM
Cn1nc(OC(F)F)cc1Nc1nncn1[C@H]1CCc2sc(NC(=O)[C@H]3C[C@@H]3F)c(C(=O)NC[C@H]3C[C@H](F)C3)c2C1 (single isomer, unassigned) [Example 378] | < 1000 nM
Cn1nc(OC(F)F)cc1Nc1nncn1[C@H]1CCc2sc(NC(=O)[C@H]3C[C@@H]3F)c(C(=O)N[C@H]3C[C@H](F)C3)c2C1 (single isomer, unassigned) [Example 379] | < 1000 nM
Cn1nc(C(F)F)cc1Nc1nncn1[C@H]1CCc2sc(NC(=O)C3CC3)c(C(=O)NC[C@H]3CC3(F)F)c2C1 (single isomer, unassigned) [Example 382] | < 1000 nM
Cn1nc(C(F)F)cc1Nc1nncn1[C@H]1CCc2sc(NC(=O)C3CC3)c(C(=O)NC[C@@H]3CC3(F)F)c2C1 (single isomer, unassigned) [Example 383] | < 1000 nM
Cn1nc(C(F)F)cc1Nc1nncn1[C@H]1CCc2sc(NC(=O)C3CC3)c(C(=O)NC[C@@H]3CC34CC4)c2C1 (single isomer, unassigned) [Example 385] | < 1000 nM
Cn1nc(C(F)F)cc1Nc1nncn1[C@H]1CCc2sc(NC(=O)C3CC3)c(C(=O)NC[C@H]3CC34CC4)c2C1 (single isomer, unassigned) [Example 386] | < 1000 nM
Cn1nc(C(F)(F)F)cc1Nc1nncn1[C@H]1CCc2sc(NC(=O)[C@H]3C[C@H]3F)c(C(=O)N[C@@H]3CC34CC4)c2C1 (single isomer, unassigned) [Example 393] | < 1000 nM
Cn1nc(C(F)(F)F)cc1Nc1nncn1[C@H]1CCc2sc(NC(=O)[C@H]3C[C@H]3F)c(C(=O)N[C@H]3CC34CC4)c2C1 (single isomer, unassigned) [Example 394] | < 1000 nM
Cn1nc(C(F)(F)F)cc1Nc1nncn1[C@H]1CCc2sc(NC(=O)[C@H]3C[C@H]3F)c(C(=O)NC[C@H]3CC3(F)F)c2C1 (single isomer, unassigned) [Example 397] | < 1000 nM
Cn1nc(C(F)(F)F)cc1Nc1nncn1[C@H]1CCc2sc(NC(=O)[C@H]3C[C@H]3F)c(C(=O)NC[C@@H]3CC3(F)F)c2C1 (single isomer, unassigned) [Example 398] | < 1000 nM
Cn1nc(C(F)F)cc1Nc1nncn1[C@H]1CCc2sc(NC(=O)[C@H]3CC34CC4)c(C(=O)NC[C@@H]3CC3(F)F)c2C1 (single isomer, unassigned) [Example 409] | < 1000 nM
Cn1nc(C(F)F)cc1Nc1nncn1[C@H]1CCc2sc(NC(=O)[C@H]3CC34CC4)c(C(=O)NC[C@H]3CC3(F)F)c2C1 (single isomer, unassigned) [Example 410] | < 1000 nM
CCOC(=O)c1c(NC(=O)[C@H]2CC23CC3)sc2c1C[C@@H](n1cnnc1Nc1cc(C(F)F)nn1C)CC2 (single isomer, unassigned) [Example 417] | < 1000 nM
C[C@H]1c2c(sc(NC(=O)C3CC3)c2C(=O)NCC2CC2)CC[C@@H]1n1cnnc1Nc1cc(C(F)(F)F)nn1C (single isomer, unassigned) [Example 422, (4R*,5R*)-2-(cyclopropanecarbonylamino)-N-(cyclopropylmethyl)-4-methyl-5-[3-[[2-methyl-5-(trifluoromethyl)pyrazol-3-yl]amino]-1,2,4-triazol-4-yl]-4,5,6,7-tetrahydrobenzothiophene-3-carboxamide] | < 1000 nM
Cn1nc(OC(F)F)cc1Nc1nncn1[C@H]1CCc2sc(NC(=O)C3CC3)c(C(=O)NC[C@H]3CC3(F)F)c2C1 (single isomer, unassigned) [Example 459] | < 1000 nM
Cn1nc(OC(F)F)cc1Nc1nncn1[C@H]1CCc2sc(NC(=O)C3CC3)c(C(=O)NC[C@@H]3CC3(F)F)c2C1 (single isomer, unassigned) [Example 460] | < 1000 nM
COc1cc(Nc2nncn2[C@H]2CCc3sc(NC(=O)[C@H]4C[C@@H]4C)c(C(=O)NC[C@H]4CC4(F)F)c3C2)n(C)n1 (single isomer, unassigned) [Example 463] | < 1000 nM
COc1cc(Nc2nncn2[C@H]2CCc3sc(NC(=O)[C@H]4C[C@@H]4C)c(C(=O)NC[C@@H]4CC4(F)F)c3C2)n(C)n1 (single isomer, unassigned) [Example 464] | < 1000 nM

Structure (SMILES) | IC50
Cn1nc(C(F)F)cc1Nc1nncn1[C@H]1CCc2sc(NC(=O)[C@H]3C[C@H](F)C3)c(C(=O)N[C@@H]3CC34CC4)c2C1 (single isomer, unassigned) [Example 469] | < 1000 nM
Cn1nc(C(F)F)cc1Nc1nncn1[C@H]1CCc2sc(NC(=O)[C@H]3C[C@H](F)C3)c(C(=O)N[C@H]3CC34CC4)c2C1 (single isomer, unassigned) [Example 470] | < 1000 nM
Cn1nc(C(F)F)cc1Nc1nncn1[C@H]1CCc2sc(NC(=O)[C@H]3C[C@H](F)C3)c(C(=O)NC[C@H]3C[C@H](F)C3)c2C1 (single isomer, unassigned) [Example 474] | < 1000 nM
Cn1nc(C(F)F)cc1Nc1nncn1[C@H]1CCc2sc(NC(=O)[C@H]3C[C@@H](F)C3)c(C(=O)NC[C@H]3C[C@H](F)C3)c2C1 (single isomer, unassigned) [Example 475] | < 1000 nM
Cn1nc(C(F)F)cc1Nc1nncn1[C@H]1CCc2sc(NC(=O)[C@H]3C[C@H](F)C3)c(C(=O)N[C@H]3C[C@H](F)C3)c2C1 (single isomer, unassigned) [Example 476] | < 1000 nM
Cn1nc(C(F)F)cc1Nc1nncn1[C@H]1CCc2sc(NC(=O)[C@H]3C[C@@H](F)C3)c(C(=O)N[C@H]3C[C@H](F)C3)c2C1 (single isomer, unassigned) [Example 477] | < 1000 nM
Cn1nc(OC(F)F)cc1Nc1nncn1[C@H]1CCc2sc(NC(=O)[C@H]3C[C@H](F)C3)c(C(=O)N[C@@H]3CC34CC4)c2C1 (single isomer, unassigned) [Example 484] | < 1000 nM
Cn1nc(OC(F)F)cc1Nc1nncn1[C@H]1CCc2sc(NC(=O)[C@H]3C[C@H](F)C3)c(C(=O)N[C@H]3CC34CC4)c2C1 (single isomer, unassigned) [Example 485] | < 1000 nM
Cn1nc(OC(F)F)cc1Nc1nncn1[C@H]1CCc2sc(NC(=O)[C@H]3C[C@H](F)C3)c(C(=O)NC[C@H]3CC3(F)F)c2C1 (single isomer, unassigned) [Example 488] | < 1000 nM
Cn1nc(C(F)F)cc1Nc1nncn1[C@H]1CCc2sc(NC(=O)C3CC3)c(C(=O)N[C@H]3CC34CC4)c2C1 (single isomer, unassigned) [Example 495] | < 1000 nM
Cn1nc(C(F)(F)F)cc1Nc1nncn1C1COc2sc(NC(=O)C3CC3)c(C(=O)NCC3CC3)c2C1 (single isomer, unassigned) [Example 501, (3R*)-6-(cyclopropanecarbonylamino)-N-(cyclopropylmethyl)-3-[3-[[2-methyl-5-(trifluoromethyl)pyrazol-3-yl]amino]-1,2,4-triazol-4-yl]-3,4-dihydro-2H-thieno[2,3-b]pyran-5-carboxamide (* or S)] | < 1000 nM
Cc1ccc(N2CC[C@H](Nc3nncn3[C@H]3CCc4sc(NC(=O)C5CC5)c(C(=O)NCC5CC5)c4C3)C2)nn1 [Example 240, (5S)-2-cyclopropaneamido-N-(cyclopropylmethyl)-5-(3-{[(35)-1-(6-methylpyridazin-3-yl)pyrrolidin-3-yl]amino}-4H-1,2,4-triazol-4-yl)-4,5,6,7-tetrahydro-1-benzothiophene-3-carboxamide] | < 1000 nM
O=C(NCC1CC1)c1c(NC(=O)C2CC2)sc2c1C[C@@H](n1cnnc1N[C@H]1CCN(c3cnccn3)C1)CC2 [Example 241, (5S)-2-(cyclopropanecarbonylamino)-N-(cyclopropylmethyl)-5-[3-[[(3S)-1-pyrazin-2-ylpyrrolidin-3-yl]amino]-1,2,4-triazol-4-yl]-4,5,6,7-tetrahydrobenzothiophene-3-carboxamide] | < 1000 nM
O=C1NCc2c(Nc3nncn3[C@H]3CCc4sc(NC(=O)C5CC5)c(C(=O)NCC5CC5)c4C3)cccc21 [Example 244, (5S)-2-cyclopropaneamido-N-(cyclopropylmethyl)-5-{3-[(1-oxo-2,3-dihydro-1H-isoindol-4-yl)amino]-4H-1,2,4-triazol-4-yl}-4,5,6,7-tetrahydro-1-benzothiophene-3-carboxamide] | < 1000 nM
O=C(NCC1CC1)c1c(NC(=O)C2CC2)sc2c1C[C@@H](n1cnnc1N[C@H]1CCN(c3ccc(F)nn3)C1)CC2 [Example 245, (5S)-2-(cyclopropanecarbonylamino)-N-(cyclopropylmethyl)-5-[3-[[(3S)-1-(6-fluoropyridazin-3-yl)pyrrolidin-3-yl]amino]-1,2,4-triazol-4-yl]-4,5,6,7-tetrahydrobenzothiophene-3-carboxamide] | < 1000 nM
O=C(NCC1CC1)c1c(NC(=O)C2CC2)sc2c1C[C@@H](n1cnnc1N[C@H]1CCN(c3ncccn3)C1)CC2 [Example 246] | < 1000 nM
COCCOC(=O)c1ncn([C@H]2CCc3sc(NC(=O)C4CC4)c(C(=O)NCC4CC4)c3C2)c1N [Example 247, 2-methoxyethyl 5-amino-1-[(5S)-2-(cyclopropanecarbonylamino)-3-(cyclopropylmethylcarbamoyl)-4,5,6,7-tetrahydro-1-benzothiophen-5-yl]imidazole-4-carboxylate] | < 1000 nM
Nc1c(C(=O)OCCN2CCOCC2)ncn1[C@H]1CCc2sc(NC(=O)C3CC3)c(C(=O)NCC3CC3)c2C1 [Example 248, 2-morpholin-4-ylethyl 5-amino-1-[(5S)-2-(cyclopropanecarbonylamino)-3-(cyclopropylmethylcarbamoyl)-4,5,6,7-tetrahydro-1-benzothiophen-5-yl]imidazole-4-carboxylate] | < 1000 nM
